Results published in PMC8348983 (International Journal of Molecular Sciences, 2021).
Like-named read-outs stand apart in the source and are kept apart here.

Assays:
human recombinant AChE = human recombinant AChE (Homo sapiens, UniProt P22303); experiment: biochemical; format: biochemical
human plasma BChE = biological target: T1, human plasma BChE (Homo sapiens, UniProt P06276); experiment: biochemical; format: biochemical
T1 construct: was used as a source of BChE and was prepared from heparinized human blood; from tissue; host or cells: human plasma from heparinized human blood

Cytotoxicity, MTT assay = format: cell-based; details: human, SH-SY5Y neuroblastoma cells, 24 h incubation
Method: The cytotoxicity profile was assessed for compound 6 using the human neuroblastoma SH-SY5Y cell line and MTT assay. At a concentration of 10 µM, compound 6 was completely devoid of cytotoxicity, with viability reaching 95.1 ± 2.6%.
The neuroblastoma cell line SH-SY5Y (Sigma-Aldrich, St. Louis, MO, USA) was used to evaluate cytotoxicity of the tested compounds. […]
The MTT (3-(4,5-dimethylthiazol-2-yl)-2,5-diphenyl-tetraziolium bromide (Sigma–Aldrich) reduction assay was used for measurement of the compounds’ cytotoxicity, according to Mosmann. MTT is a water-soluble tetrazolium salt that is converted to purple formazan by succinate dehydrogenase in mitochondria of viable cells. Cell viability was detected after 24-h incubation with the tested substances. For the assay, SH-SY5Y cells were seeded into 96-well plates in 100 µL volume and at a density of 20 × 10^3. Cells were allowed to attach overnight before the treatment. The stock solutions of tested compounds were prepared in dimethylsulfoxide (DMSO, Sigma-Aldrich), which were serially diluted in DMEM and added to the cells in a 96-well culture plate. […] The optical density of each well was measured using a Spark® multimode microplate reader (Tecan Group Ltd., Männedorf, Switzerland) at 570 nm. The cell viability was expressed as a percentage of the untreated control. […]

hBuChE = biological target: T2, hBuChE (Homo sapiens, UniProt P06276); experiment: Kinetic study of hBuChE inhibition; format: biochemical
T2 construct: was used as a source of BChE and was prepared from heparinized human blood; from tissue; host or cells: human plasma from heparinized human blood
Method: Compound 6, the derivative with the most robust inhibitory activity, was subjected to enzyme kinetics analysis to determine the mode of hBuChE inhibition. Inhibition kinetics were elucidated from velocity curves that were measured at several concentrations of substrate butyrylthiocholine and test compound. The type of enzyme inhibition and corresponding kinetic parameters (Ki and Ki′) were determined by nonlinear regression analysis. Results for each type of model of inhibition (competitive, non-competitive, uncompetitive, and mixed) were compared by the sum-of-squares F-test. […].
Kinetic studies employed the same procedure that was previously described. Supplementary Materials provides details of this assay.
Biological assays in detail hAChE and hBuChE Inhibition Assay
The inhibitory activities of prepared compounds and standards against human recombinant AChE (E.C.
3.1.1.7) and human plasma BChE (E.C. 3.1.1.8) were determined using modified Ellman’s method […]
cholinesterase activity). Human recombinant AChE, phosphate buffer (PB, pH = 7.4), 5,5’ -dithio-bis(2-nitrobenzoic) acid (Ellman’s reagent, DTNB), acetylthiocholine (ATCh), butyrylthiocholine (BTCh), and other used compounds were purchased from Sigma-Aldrich (Prague, Czech Republic). […]
The solutions of she corresponding cholinesterase in PB were prepared up to the final activity 0.002 U/µL. […] The increase of absorbance was measured at 412 nm using Multimode microplate reader Synergy 2 (BioTek Inc., Winooski, VT, USA). For the calculation of the resulting measured activity (the percentage of inhibition I) following formula was used: […]
where ΔAi indicates absorbance change provided by adequate enzyme exposed to corresponding inhibitor and ΔA0 indicates absorbance change when a solution of PB was added instead of a solution of inhibitor. […]
The kinetic study hBuChE was performed by using above mentioned modified Ellman’s method. The values of Vmax and Km of the Michaelis-Menten kinetics as well as the values of Ki and Ki’ were calculated by nonlinear regression from the substrate velocity curves. […]

T1 sequence (P06276 29-602): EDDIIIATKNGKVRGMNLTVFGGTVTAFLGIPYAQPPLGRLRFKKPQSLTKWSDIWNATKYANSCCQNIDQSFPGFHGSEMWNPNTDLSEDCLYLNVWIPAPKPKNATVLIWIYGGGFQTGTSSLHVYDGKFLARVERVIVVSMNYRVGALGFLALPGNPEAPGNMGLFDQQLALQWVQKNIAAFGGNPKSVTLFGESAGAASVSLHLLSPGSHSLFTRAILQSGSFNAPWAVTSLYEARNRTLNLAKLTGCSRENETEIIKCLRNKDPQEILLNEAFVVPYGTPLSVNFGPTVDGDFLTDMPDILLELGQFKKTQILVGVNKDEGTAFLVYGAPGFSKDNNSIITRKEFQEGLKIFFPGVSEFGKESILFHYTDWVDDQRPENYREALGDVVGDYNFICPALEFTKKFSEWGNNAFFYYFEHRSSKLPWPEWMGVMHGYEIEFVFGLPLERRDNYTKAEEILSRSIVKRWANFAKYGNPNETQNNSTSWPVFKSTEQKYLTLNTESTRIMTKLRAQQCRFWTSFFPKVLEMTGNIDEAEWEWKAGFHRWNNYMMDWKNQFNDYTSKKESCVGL
Chain of human recombinant AChE (P22303 32-614): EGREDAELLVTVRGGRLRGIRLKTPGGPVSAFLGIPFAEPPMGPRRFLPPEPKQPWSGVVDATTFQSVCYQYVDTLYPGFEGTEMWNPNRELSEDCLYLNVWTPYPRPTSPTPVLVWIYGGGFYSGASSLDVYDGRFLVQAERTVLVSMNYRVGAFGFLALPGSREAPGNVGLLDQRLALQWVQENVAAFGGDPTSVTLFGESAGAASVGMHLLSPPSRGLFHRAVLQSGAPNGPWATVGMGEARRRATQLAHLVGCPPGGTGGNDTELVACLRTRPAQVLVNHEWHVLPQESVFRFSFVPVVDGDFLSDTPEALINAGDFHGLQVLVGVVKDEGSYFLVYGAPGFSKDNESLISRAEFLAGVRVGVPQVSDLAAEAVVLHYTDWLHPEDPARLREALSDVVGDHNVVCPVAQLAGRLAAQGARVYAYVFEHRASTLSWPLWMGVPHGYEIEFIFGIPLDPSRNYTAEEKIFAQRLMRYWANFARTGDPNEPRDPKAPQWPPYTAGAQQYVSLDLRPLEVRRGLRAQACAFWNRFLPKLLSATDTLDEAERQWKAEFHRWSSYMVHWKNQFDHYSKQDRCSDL

C=CCOc1ccc(CCN(CC=C)Cc2ccc(OC)c(OCc3ccccc3)c2)cc1 [Compound 6, N-allyl-N-(3-benzyloxy-4-methoxybenzyl)-2-(4-allyloxyphenyl)ethan-1-amine]
IC50 (human recombinant AChE; mean ± SEM of three independent measurements, each in triplicate, read-out: IC50, hAChE ± SEM): > 100 µM
inhibition at 100 µM (human recombinant AChE; tested at 100 µM compound concentration, read-out: %Inhibition hAChE ± SEM): 10.1 ± 0.6%
IC50 (human plasma BChE; mean ± SEM of three independent measurements, each in triplicate, read-out: IC50, hBuChE ± SEM): 70 ± 10 nM
IC50 (human plasma BChE; read-out: IC50, hBuChE): 72 nM
inhibition at 100 µM (human plasma BChE; tested at 100 µM compound concentration, read-out: % Inhibition hBuChE ± SEM): 98.6 ± 0.9%
viability at 24 h, 10 µM (Cytotoxicity, MTT assay): 95.1 ± 2.6%
Ki′ (hBuChE; hBuChE, enzyme-substrate complex, nonlinear regression): 347 ± 79 nM
Ki (hBuChE; hBuChE, substrate butyrylthiocholine, nonlinear regression): 60.3 ± 11.6 nM
type of hBuChE inhibition (hBuChE; sum-of-squares F-test, p < 0.05, Lineweaver–Burk plot): mixed type of inhibition
